Assay results reported in the NIST ThermoML archive (doi:10.1016/j.jct.2016.12.029).
Numbers after ± are expanded uncertainties.

Assay: xn = mol fraction of the nth substance listed
Settings: Gas, Buoyancy - hydrostatic balance with magnetic suspension - one sinker

C=C(F)C(F)(F)F [2,3,3,3-tetrafluoro-1-propene] + CCC
Settings	mass density [kg/m3]
265.46 K, 101.2 kPa, x1 = 1	5.404 ± 0.069
265.48 K, 207.2 kPa, x1 = 1	11.507 ± 0.069
265.55 K, 106.5 kPa, x1 = 0.8116	5.018 ± 0.062
265.56 K, 107.5 kPa, x1 = 0.583	4.254 ± 0.051
265.57 K, 104 kPa, x1 = 0.0906	2.433 ± 0.03
265.57 K, 181.7 kPa, x1 = 0.8116	8.775 ± 0.066
265.57 K, 198.3 kPa, x1 = 0.583	8.052 ± 0.056
265.57 K, 206.2 kPa, x1 = 0.0906	4.954 ± 0.033
265.58 K, 299.3 kPa, x1 = 0.0906	7.374 ± 0.037
265.59 K, 295.1 kPa, x1 = 0.583	12.343 ± 0.062
265.6 K, 249 kPa, x1 = 0.8116	12.31 ± 0.071
270.36 K, 101 kPa, x1 = 1	5.279 ± 0.066
270.38 K, 164.6 kPa, x1 = 1	8.792 ± 0.069
270.38 K, 250.3 kPa, x1 = 1	13.798 ± 0.07
270.4 K, 103.2 kPa, x1 = 0.2546	2.918 ± 0.036
270.41 K, 182.2 kPa, x1 = 0.2546	5.239 ± 0.039
270.42 K, 267 kPa, x1 = 0.2546	7.839 ± 0.042
270.44 K, 102.4 kPa, x1 = 0.0906	2.353 ± 0.03
270.44 K, 194.1 kPa, x1 = 0.0906	4.555 ± 0.033
270.44 K, 338.6 kPa, x1 = 0.0906	8.243 ± 0.038
270.45 K, 102.6 kPa, x1 = 0.583	3.972 ± 0.05
270.45 K, 215 kPa, x1 = 0.583	8.58 ± 0.056
270.47 K, 349 kPa, x1 = 0.583	14.488 ± 0.065
270.5 K, 105.1 kPa, x1 = 0.8116	4.852 ± 0.06
270.5 K, 182.6 kPa, x1 = 0.8116	8.631 ± 0.065
270.5 K, 286.6 kPa, x1 = 0.8116	14.015 ± 0.072
275.39 K, 106.2 kPa, x1 = 1	5.448 ± 0.066
275.4 K, 208.6 kPa, x1 = 1	11.064 ± 0.068
275.41 K, 188.7 kPa, x1 = 0.2546	5.334 ± 0.039
275.41 K, 306 kPa, x1 = 0.2546	8.898 ± 0.044
275.42 K, 303.7 kPa, x1 = 1	16.657 ± 0.071
275.43 K, 404.2 kPa, x1 = 0.2546	12.054 ± 0.052
275.45 K, 102.2 kPa, x1 = 0.583	3.894 ± 0.049
275.45 K, 198.4 kPa, x1 = 0.583	7.744 ± 0.054
275.46 K, 103.9 kPa, x1 = 0.0906	2.338 ± 0.029
275.46 K, 196 kPa, x1 = 0.0906	4.504 ± 0.031
275.46 K, 282.9 kPa, x1 = 0.0906	6.633 ± 0.035
275.47 K, 107.9 kPa, x1 = 0.8116	4.886 ± 0.059
275.47 K, 211 kPa, x1 = 0.8116	9.844 ± 0.065
275.47 K, 300.7 kPa, x1 = 0.583	12.066 ± 0.062
275.47 K, 374.9 kPa, x1 = 0.0906	8.996 ± 0.04
275.49 K, 325.2 kPa, x1 = 0.8116	15.724 ± 0.075
275.49 K, 415.1 kPa, x1 = 0.583	17.223 ± 0.071
280.28 K, 103.6 kPa, x1 = 1	5.208 ± 0.064
280.29 K, 176.6 kPa, x1 = 1	9.076 ± 0.066
280.29 K, 274 kPa, x1 = 1	14.527 ± 0.069
280.29 K, 356.2 kPa, x1 = 1	19.43 ± 0.072
280.31 K, 101.5 kPa, x1 = 0.2546	2.757 ± 0.035
280.31 K, 195.7 kPa, x1 = 0.2546	5.424 ± 0.038
280.31 K, 360.4 kPa, x1 = 0.2546	10.374 ± 0.047
280.31 K, 476.4 kPa, x1 = 0.2546	14.119 ± 0.054
280.32 K, 279.7 kPa, x1 = 0.2546	7.895 ± 0.042
280.33 K, 202 kPa, x1 = 0.583	7.713 ± 0.052
280.34 K, 102.8 kPa, x1 = 0.583	3.835 ± 0.048
280.34 K, 300.9 kPa, x1 = 0.583	11.781 ± 0.06
280.34 K, 401.2 kPa, x1 = 0.583	16.148 ± 0.069
280.35 K, 481.2 kPa, x1 = 0.583	19.822 ± 0.076
280.36 K, 103.6 kPa, x1 = 0.8116	4.599 ± 0.057
280.36 K, 106.5 kPa, x1 = 0.0906	2.352 ± 0.028
280.37 K, 190.7 kPa, x1 = 0.8116	8.666 ± 0.062
280.37 K, 207.3 kPa, x1 = 0.0906	4.678 ± 0.031
280.38 K, 294.7 kPa, x1 = 0.8116	13.792 ± 0.071
280.39 K, 315.2 kPa, x1 = 0.0906	7.287 ± 0.036
280.4 K, 369 kPa, x1 = 0.8116	17.665 ± 0.078
280.4 K, 425 kPa, x1 = 0.0906	10.088 ± 0.042
285.27 K, 258.8 kPa, x1 = 1	13.34 ± 0.067
285.28 K, 104.7 kPa, x1 = 1	5.162 ± 0.062
285.28 K, 164.2 kPa, x1 = 1	8.23 ± 0.064
285.28 K, 358.5 kPa, x1 = 1	19.078 ± 0.069
285.29 K, 306.8 kPa, x1 = 0.2546	8.517 ± 0.042
285.29 K, 414.7 kPa, x1 = 0.2546	11.796 ± 0.049
285.29 K, 520.3 kPa, x1 = 0.2546	15.183 ± 0.057
285.3 K, 104 kPa, x1 = 0.2546	2.771 ± 0.034
285.3 K, 204 kPa, x1 = 0.2546	5.541 ± 0.037
285.32 K, 104.6 kPa, x1 = 0.583	3.829 ± 0.047
285.32 K, 198.9 kPa, x1 = 0.583	7.432 ± 0.051
285.32 K, 309.1 kPa, x1 = 0.583	11.855 ± 0.059
285.32 K, 414.1 kPa, x1 = 0.583	16.308 ± 0.068
285.33 K, 524.2 kPa, x1 = 0.583	21.282 ± 0.078
285.35 K, 103.9 kPa, x1 = 0.0906	2.256 ± 0.028
285.35 K, 107.3 kPa, x1 = 0.8116	4.677 ± 0.056
285.35 K, 203.4 kPa, x1 = 0.8116	9.079 ± 0.062
285.36 K, 205.6 kPa, x1 = 0.0906	4.552 ± 0.03
285.37 K, 298.4 kPa, x1 = 0.0906	6.733 ± 0.034
